This assay has as its target 5-hydroxytryptamine receptor 2B (Homo sapiens, UniProt P41595). Description: Displacement of […] from human 5-HT2B receptor by competitive radioligand binding assay.

This passage reports Ki results from BindingDB's records for doi:10.1016/j.bmcl.2020.127669 (Janssen Research & Development, 2021).

The term Ki denotes the dissociation constant of the complex between target and ligand, obtained from inhibition or displacement. A high value points to lower affinity.

Chain of 5-hydroxytryptamine receptor 2B (P41595 whole entry): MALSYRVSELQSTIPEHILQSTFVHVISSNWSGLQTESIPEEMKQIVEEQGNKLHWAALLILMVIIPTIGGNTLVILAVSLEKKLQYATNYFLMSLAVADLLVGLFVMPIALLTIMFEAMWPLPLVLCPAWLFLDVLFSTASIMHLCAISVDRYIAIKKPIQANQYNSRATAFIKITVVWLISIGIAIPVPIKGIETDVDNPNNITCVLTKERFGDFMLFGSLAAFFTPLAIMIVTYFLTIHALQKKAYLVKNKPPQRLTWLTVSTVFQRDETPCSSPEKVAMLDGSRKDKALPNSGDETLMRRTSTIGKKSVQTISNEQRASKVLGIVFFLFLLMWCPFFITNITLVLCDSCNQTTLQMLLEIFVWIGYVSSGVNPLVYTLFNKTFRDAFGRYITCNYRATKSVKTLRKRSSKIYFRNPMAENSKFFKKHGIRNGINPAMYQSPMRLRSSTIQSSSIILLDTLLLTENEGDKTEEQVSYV

Take `CC(C)n1nc2c(c1-c1ccc(F)cc1)CCNCC2`: the Ki was determined as 25 nM.
